Laboratory results published in ChEMBL document CHEMBL5291721, “A preclinical secondary pharmacology resource illuminates target-adverse drug reaction associations of marketed drugs” (Nat Commun, 2023).

Experiments:
[1] = target: T1, Glucocorticoid receptor (Homo sapiens, UniProt P04150); type: functional
T1 sequence (P04150 whole entry): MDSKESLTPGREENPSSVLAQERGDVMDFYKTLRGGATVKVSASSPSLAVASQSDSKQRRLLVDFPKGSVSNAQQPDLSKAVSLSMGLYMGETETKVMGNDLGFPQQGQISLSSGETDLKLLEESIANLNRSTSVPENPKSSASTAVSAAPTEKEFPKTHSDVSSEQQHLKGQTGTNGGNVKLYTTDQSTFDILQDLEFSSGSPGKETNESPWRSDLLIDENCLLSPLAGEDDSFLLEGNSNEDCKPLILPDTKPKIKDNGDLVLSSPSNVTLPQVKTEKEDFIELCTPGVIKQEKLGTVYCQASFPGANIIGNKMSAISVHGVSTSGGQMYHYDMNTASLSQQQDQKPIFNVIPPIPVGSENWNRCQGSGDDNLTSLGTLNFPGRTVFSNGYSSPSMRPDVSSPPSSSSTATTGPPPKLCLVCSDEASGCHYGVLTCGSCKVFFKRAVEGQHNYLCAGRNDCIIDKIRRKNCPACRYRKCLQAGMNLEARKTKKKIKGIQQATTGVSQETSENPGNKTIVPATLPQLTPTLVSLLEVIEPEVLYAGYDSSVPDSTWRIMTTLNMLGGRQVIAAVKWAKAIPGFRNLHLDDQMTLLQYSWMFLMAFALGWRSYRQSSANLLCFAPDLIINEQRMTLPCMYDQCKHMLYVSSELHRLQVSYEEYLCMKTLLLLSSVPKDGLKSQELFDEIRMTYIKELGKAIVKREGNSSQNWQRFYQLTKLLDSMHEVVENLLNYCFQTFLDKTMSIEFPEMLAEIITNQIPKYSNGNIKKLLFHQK

[2] = target: T2, Peroxisome proliferator-activated receptor gamma (Homo sapiens, UniProt P37231); type: functional
T2 sequence (P37231 whole entry): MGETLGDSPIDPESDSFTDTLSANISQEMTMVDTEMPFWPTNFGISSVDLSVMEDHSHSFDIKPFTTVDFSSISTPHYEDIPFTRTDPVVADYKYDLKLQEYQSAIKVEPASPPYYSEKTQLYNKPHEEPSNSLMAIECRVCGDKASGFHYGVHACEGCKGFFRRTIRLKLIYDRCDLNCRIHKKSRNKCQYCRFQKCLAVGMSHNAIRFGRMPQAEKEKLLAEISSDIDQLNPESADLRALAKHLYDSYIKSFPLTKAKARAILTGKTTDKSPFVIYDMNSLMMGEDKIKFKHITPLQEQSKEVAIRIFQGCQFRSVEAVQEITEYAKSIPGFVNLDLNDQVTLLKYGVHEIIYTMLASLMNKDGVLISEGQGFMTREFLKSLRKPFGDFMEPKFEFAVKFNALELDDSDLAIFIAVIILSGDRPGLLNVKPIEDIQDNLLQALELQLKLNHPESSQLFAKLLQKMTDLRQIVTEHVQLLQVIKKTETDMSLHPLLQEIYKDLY

[3] = target: T2, Peroxisome proliferator-activated receptor gamma; type: functional; remark: listed apart in the source
[4] = target: Receptor tyrosine-protein kinase erbB-2 (Homo sapiens, UniProt P04626); type: functional
Sequence of Receptor tyrosine-protein kinase erbB-2 (P04626 whole entry): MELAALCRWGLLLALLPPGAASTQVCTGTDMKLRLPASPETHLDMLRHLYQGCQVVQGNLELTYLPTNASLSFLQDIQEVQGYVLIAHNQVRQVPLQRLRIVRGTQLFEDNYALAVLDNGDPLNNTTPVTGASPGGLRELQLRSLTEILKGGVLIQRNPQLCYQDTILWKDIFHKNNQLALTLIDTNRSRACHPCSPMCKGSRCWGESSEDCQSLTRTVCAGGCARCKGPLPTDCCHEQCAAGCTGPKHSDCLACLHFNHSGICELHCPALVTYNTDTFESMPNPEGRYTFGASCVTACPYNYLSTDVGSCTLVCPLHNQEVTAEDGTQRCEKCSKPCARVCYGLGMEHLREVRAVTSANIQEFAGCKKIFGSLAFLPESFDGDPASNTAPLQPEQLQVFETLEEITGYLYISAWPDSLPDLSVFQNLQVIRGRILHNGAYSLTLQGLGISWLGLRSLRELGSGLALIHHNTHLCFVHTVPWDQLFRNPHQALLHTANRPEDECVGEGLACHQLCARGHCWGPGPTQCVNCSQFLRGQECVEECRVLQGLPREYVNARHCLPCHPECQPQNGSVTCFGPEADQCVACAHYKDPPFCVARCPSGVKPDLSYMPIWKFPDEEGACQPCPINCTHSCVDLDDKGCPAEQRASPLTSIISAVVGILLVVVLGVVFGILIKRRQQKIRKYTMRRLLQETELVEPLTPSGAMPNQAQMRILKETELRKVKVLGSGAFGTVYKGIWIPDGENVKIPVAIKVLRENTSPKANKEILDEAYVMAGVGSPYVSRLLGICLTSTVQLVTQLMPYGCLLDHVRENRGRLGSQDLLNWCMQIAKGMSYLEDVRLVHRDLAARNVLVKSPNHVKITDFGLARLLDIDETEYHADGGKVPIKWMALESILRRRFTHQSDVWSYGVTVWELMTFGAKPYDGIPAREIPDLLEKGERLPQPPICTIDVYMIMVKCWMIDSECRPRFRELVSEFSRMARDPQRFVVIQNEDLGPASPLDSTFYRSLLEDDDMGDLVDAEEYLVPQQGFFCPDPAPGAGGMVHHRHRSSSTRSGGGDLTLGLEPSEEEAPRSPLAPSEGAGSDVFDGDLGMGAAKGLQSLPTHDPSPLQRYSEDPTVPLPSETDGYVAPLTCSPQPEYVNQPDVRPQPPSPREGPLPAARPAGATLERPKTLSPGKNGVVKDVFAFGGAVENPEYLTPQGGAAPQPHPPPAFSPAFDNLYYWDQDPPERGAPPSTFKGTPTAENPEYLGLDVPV

[5] = target: Sodium channel protein type 5 subunit alpha (Homo sapiens, UniProt Q14524); type: functional, cell-based
Sequence of Sodium channel protein type 5 subunit alpha (Q14524 whole entry): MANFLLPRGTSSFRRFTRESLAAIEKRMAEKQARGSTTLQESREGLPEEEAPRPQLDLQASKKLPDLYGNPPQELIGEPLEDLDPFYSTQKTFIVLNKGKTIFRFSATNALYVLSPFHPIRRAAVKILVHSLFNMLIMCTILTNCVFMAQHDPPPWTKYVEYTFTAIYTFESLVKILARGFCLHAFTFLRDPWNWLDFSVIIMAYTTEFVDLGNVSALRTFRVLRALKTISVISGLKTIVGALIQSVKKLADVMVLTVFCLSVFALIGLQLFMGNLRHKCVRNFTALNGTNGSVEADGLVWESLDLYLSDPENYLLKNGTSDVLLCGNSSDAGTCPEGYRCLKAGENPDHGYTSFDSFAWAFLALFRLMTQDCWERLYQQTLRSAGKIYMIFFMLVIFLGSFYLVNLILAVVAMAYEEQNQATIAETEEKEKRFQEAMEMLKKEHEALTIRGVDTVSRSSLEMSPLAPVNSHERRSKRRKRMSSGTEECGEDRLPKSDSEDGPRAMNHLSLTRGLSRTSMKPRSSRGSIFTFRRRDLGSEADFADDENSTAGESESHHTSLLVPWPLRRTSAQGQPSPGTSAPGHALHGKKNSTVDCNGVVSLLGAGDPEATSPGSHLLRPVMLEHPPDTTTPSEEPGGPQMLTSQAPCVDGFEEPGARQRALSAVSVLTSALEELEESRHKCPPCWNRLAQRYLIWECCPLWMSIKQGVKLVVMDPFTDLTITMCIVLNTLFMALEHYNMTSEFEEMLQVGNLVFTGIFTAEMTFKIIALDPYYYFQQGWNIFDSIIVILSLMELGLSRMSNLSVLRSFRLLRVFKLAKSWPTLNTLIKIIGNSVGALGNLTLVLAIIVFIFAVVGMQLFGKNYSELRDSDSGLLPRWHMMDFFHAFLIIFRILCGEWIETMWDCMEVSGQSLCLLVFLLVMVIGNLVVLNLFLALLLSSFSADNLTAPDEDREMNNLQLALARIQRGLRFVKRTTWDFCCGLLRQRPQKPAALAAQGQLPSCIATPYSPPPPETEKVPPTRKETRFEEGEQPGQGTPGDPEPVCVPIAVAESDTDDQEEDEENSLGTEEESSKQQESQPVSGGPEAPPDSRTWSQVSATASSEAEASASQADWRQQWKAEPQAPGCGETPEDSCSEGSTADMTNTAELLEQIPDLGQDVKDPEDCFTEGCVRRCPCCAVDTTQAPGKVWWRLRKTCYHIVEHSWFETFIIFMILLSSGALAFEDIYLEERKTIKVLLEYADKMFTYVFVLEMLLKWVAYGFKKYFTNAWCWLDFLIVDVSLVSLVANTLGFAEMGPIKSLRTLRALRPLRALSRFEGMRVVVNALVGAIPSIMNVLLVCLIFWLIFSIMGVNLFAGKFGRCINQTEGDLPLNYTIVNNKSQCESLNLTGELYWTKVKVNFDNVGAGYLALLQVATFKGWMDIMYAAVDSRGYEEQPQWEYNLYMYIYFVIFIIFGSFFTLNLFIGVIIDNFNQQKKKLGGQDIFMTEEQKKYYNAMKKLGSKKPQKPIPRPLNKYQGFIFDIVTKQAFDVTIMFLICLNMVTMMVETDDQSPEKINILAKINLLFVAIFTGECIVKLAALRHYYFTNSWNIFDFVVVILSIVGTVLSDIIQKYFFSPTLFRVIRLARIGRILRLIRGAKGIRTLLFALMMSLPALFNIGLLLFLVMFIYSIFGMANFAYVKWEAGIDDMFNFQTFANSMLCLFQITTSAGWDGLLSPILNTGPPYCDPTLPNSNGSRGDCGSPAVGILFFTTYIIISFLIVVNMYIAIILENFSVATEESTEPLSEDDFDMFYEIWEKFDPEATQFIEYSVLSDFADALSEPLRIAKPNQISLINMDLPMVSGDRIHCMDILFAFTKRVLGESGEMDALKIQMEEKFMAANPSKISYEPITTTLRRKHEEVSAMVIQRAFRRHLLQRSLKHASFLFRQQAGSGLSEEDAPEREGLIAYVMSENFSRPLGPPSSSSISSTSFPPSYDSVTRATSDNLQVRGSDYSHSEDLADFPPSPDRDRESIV

[6] = target: Mu-type opioid receptor (Homo sapiens, UniProt P35372); test: biochemical; type: functional
Sequence of Mu-type opioid receptor (P35372 whole entry): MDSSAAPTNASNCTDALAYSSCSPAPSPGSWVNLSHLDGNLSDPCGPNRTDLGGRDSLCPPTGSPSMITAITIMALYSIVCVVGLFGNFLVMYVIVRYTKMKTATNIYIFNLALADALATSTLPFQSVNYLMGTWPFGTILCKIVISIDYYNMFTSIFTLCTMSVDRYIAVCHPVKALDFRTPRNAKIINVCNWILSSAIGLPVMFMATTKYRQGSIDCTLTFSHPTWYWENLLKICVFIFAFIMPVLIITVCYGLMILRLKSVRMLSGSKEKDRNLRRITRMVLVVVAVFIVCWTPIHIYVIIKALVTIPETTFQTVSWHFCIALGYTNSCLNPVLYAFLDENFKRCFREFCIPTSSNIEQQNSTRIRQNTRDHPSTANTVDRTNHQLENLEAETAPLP

[7] = target: T3, Adenosine receptor A1 (Homo sapiens, UniProt P30542)
T3 sequence (P30542 whole entry): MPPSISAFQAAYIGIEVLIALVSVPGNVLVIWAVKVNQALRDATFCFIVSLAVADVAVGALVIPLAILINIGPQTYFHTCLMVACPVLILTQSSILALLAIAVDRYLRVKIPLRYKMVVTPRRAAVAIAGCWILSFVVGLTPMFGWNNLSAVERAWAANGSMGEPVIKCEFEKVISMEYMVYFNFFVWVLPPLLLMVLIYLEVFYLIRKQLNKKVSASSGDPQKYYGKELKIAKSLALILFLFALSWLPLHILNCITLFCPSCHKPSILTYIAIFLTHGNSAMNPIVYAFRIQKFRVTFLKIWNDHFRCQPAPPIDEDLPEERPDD

[8] = target: T4, Androgen receptor (Homo sapiens, UniProt P10275)
T4 sequence (P10275 whole entry): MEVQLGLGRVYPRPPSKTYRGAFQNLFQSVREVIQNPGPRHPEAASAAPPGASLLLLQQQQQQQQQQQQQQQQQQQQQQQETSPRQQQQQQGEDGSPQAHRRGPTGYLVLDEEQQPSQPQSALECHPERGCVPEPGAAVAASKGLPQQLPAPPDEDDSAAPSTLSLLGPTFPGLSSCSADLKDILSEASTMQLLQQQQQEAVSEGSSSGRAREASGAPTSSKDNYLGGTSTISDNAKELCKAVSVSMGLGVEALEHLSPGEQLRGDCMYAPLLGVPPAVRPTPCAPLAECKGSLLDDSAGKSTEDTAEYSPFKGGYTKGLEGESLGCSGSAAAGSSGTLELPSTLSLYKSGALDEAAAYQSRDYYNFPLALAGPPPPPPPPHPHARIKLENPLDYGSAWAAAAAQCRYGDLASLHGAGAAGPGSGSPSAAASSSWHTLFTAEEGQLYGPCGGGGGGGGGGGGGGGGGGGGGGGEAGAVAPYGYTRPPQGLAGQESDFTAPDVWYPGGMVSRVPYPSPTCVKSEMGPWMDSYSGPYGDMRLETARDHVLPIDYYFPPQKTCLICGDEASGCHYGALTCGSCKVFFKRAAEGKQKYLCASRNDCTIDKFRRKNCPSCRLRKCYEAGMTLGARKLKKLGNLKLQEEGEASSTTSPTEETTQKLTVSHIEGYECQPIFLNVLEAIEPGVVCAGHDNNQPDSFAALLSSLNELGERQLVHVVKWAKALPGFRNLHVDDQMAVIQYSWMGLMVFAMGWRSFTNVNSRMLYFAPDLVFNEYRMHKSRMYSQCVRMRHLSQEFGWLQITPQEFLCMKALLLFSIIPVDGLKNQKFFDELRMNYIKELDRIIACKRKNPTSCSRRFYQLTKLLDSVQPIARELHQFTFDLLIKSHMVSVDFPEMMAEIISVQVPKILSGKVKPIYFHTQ

[9] = target: Gamma-aminobutyric acid receptor subunit alpha-1/alpha-2/beta-2/gamma-2 (Homo sapiens, UniProt P14867+P18507+P47869+P47870); type: protein-complex assay
Note: assay procedure not described here.

SMILES	AC50 [1] [µM]	AC50 [2] [µM]	AC50 [3] [µM]	AC50 [4] [µM]	AC50 [5] [µM]	AC50 [6] [µM]	AC50 [7] [µM]	AC50 [8] [µM]	AC50 [9] [µM]
CCOCC(O)COc1ccc(NC(=O)CC[S+](C)C)cc1 (configuration not stated)	> 30	> 30	> 30	–	–	–	–	–	–
CCC[C@@]1(CCc2ccccc2)CC(O)=C([C@H](CC)c2cccc(NS(=O)(=O)c3ccc(C(F)(F)F)cn3)c2)C(=O)O1	> 30	> 30	6.9	> 30	> 50	–	–	–	–
CN1CC2c3ccccc3Oc3ccc(Cl)cc3C2C1 (configuration not stated) [ASENAPINE]	> 30	> 30	> 30	> 30	2	–	–	–	–
Cn1cnc2c(F)c(Nc3ccc(Br)cc3F)c(C(=O)NOCCO)cc21 [BINIMETINIB]	> 30	> 30	> 30	> 30	> 30	–	–	–	–
C[C@H](CCC(=O)O)[C@H]1CC[C@H]2[C@@H]3[C@H](O)C[C@@H]4C[C@H](O)CC[C@]4(C)[C@H]3CC[C@]12C [CHENODIOL]	–	> 30	> 30	> 30	> 50	–	–	–	–
O=C(O)[C@H]1/C(=C/CO)O[C@@H]2CC(=O)N21 [CLAVULANIC ACID]	> 30	> 30	> 30	–	–	–	–	–	–
CC(C)/N=c1\cc2n(-c3ccc(Cl)cc3)c3ccccc3nc-2cc1Nc1ccc(Cl)cc1 [CLOFAZIMINE]	> 30	–	–	–	–	> 30	–	–	–
C[C@H](Nc1ncnc2[nH]cnc12)c1cc2cccc(Cl)c2c(=O)n1-c1ccccc1 [DUVELISIB]	> 30	> 30	> 30	> 30	> 50	–	> 30	> 30	–
NCC1(CC(=O)O)CCCCC1 [GABAPENTIN]	> 30	> 30	> 30	> 30	> 30	–	–	–	> 30
C[C@@H](O)[C@H]1C(=O)N2C(C(=O)O)=C(SCCN=CN)C[C@H]12 [IMIPENEM ANHYDROUS]	> 300	> 300	> 300	> 300	–	–	–	–	–
O=C1[C@@H]2[C@H]3CC[C@H](C3)[C@@H]2C(=O)N1C[C@@H]1CCCC[C@H]1CN1CCN(c2nsc3ccccc23)CC1 [LURASIDONE]	> 10	> 30	> 30	> 30	41	–	–	> 30	> 30
CO[C@@H]1[C@@H](OC(N)=O)[C@@H](O)[C@H](Oc2ccc3c(O)c(NC(=O)c4ccc(O)c(CC=C(C)C)c4)c(=O)oc3c2C)OC1(C)C [NOVOBIOCIN]	> 30	> 30	> 30	> 30	> 50	–	–	–	–
CC(=O)SCC(Cc1ccccc1)C(=O)NCC(=O)OCc1ccccc1 (configuration not stated) [RACECADOTRIL]	> 30	–	–	–	–	> 30	–	–	–
COc1cc2c(cc1OC)C1CC(=O)C(CC(C)C)CN1CC2 (configuration not stated) [TETRABENAZINE]	–	> 30	> 30	> 30	–	–	–	–	–
CC(C)(CO)c1cc2cc(NC(=O)C3(c4ccc5c(c4)OC(F)(F)O5)CC3)c(F)cc2n1C[C@@H](O)CO [TEZACAFTOR]	> 30	> 30	> 30	–	42	–	–	–	–
c1cnc2cc3c(cc2n1)[C@@H]1CNC[C@H]3C1 [VARENICLINE]	–	> 30	> 30	> 30	–	–	–	–	–
Nc1c2c(nc3ccccc13)CCCC2O (configuration not stated) [VELNACRINE]	> 30	> 30	> 30	> 30	–	–	–	–	–
